From ChEMBL document CHEMBL3112477, “Rat intestinal sucrase inhibition of constituents from the roots of Rosa rugosa Thunb” (Bioorg Med Chem Lett, 2014)

How the values were obtained:
[1] = biological target: Sucrase-isomaltase, intestinal (Rattus norvegicus) (UniProt P23739); test: Inhibition of rat intestinal sucrase using p-nitrophenyl-alpha-d-glucopyranoside as substrate at 1 mM incubated for 10 mins prior to substrate addition measured after 5 mins by spectrophotometry
[2] = biological target: Sucrase-isomaltase, intestinal (Rattus norvegicus, UniProt P23739); test: Inhibition of rat intestinal sucrase using p-nitrophenyl-alpha-d-glucopyranoside as substrate incubated for 10 mins prior to substrate addition measured after 5 mins by spectrophotometry
Sucrase-isomaltase, intestinal, sequence (P23739 1-1013 limits assumed): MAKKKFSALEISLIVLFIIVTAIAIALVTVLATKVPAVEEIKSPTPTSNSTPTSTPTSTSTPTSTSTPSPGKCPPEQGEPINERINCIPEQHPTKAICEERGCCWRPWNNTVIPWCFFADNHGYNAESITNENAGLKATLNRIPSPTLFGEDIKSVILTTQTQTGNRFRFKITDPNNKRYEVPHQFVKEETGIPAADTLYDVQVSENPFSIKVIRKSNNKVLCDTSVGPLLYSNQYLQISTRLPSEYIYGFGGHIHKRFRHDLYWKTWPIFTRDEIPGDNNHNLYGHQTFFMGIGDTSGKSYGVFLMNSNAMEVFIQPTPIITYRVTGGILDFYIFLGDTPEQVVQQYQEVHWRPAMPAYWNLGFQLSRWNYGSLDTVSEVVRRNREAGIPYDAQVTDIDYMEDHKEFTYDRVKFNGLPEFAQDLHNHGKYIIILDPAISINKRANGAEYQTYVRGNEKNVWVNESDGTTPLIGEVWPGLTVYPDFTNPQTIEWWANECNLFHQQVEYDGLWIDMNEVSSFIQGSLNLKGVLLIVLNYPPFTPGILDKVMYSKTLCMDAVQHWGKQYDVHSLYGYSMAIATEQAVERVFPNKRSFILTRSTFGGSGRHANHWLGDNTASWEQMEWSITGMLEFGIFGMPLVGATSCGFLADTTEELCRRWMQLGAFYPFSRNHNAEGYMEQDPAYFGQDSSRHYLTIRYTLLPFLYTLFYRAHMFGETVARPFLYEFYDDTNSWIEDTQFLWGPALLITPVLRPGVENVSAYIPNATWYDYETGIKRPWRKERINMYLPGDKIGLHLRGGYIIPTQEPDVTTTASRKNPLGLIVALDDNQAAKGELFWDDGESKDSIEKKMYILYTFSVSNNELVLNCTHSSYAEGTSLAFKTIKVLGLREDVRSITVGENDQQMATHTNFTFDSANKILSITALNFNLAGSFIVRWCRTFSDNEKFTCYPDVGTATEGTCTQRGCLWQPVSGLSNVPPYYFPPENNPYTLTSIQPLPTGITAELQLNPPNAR
Sucrase-isomaltase, intestinal, sequence (P23739 1014-1841 limits assumed): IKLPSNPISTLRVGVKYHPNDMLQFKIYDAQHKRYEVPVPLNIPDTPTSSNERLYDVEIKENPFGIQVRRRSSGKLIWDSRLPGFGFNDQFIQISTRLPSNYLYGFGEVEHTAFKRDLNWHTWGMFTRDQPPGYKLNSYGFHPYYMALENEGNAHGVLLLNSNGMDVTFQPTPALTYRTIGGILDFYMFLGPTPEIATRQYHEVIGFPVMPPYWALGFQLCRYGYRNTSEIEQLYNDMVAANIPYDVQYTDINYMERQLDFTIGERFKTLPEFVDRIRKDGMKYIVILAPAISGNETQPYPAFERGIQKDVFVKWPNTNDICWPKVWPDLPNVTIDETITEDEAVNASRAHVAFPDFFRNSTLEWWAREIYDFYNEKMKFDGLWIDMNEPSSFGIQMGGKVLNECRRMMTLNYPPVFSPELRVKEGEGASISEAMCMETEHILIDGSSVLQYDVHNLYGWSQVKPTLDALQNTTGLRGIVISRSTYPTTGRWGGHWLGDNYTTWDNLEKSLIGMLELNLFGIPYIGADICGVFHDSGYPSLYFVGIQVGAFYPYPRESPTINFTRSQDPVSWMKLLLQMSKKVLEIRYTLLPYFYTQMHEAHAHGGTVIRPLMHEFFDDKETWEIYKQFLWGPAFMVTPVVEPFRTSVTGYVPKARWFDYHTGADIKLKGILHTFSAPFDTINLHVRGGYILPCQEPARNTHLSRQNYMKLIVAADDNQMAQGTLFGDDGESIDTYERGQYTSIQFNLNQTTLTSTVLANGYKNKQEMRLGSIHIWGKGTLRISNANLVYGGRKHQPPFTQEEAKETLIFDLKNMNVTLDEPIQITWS

Sucrase-isomaltase, intestinal (Rattus norvegicus), sequence (P23739 1-1013 limits assumed): as the sequence (P23739 1-1013 limits assumed) above
Sucrase-isomaltase, intestinal (Rattus norvegicus), sequence (P23739 1014-1841 limits assumed): as the sequence (P23739 1014-1841 limits assumed) above

Row | SMILES | inhibition [1] [%] | IC50 [2] [µM]
1 | C[C@@H]1CC[C@]2(C(=O)O)CC[C@]3(C)C(=CC[C@@H]4[C@@]5(C)C=C(O)C(=O)C(C)(C)[C@@H]5CC[C@]43C)[C@@H]2[C@]1(C)O | < 10 | 
2 | CC1=CC(=O)CC(C)(C)/C1=C/CC(C)O[C@@H]1O[C@H](CO)[C@@H](O)[C@H](O)[C@H]1O (some centres not stated) | 28.3 | > 1000
3 | C[C@H]1O[C@H](O[C@H]2[C@H](O)[C@@H](O)[C@@H](O[C@H]3[C@H](O)[C@@H](O)C(O)O[C@@H]3CO)O[C@@H]2CO)[C@H](O)[C@@H](O)[C@@H]1N[C@H]1C=C(CO)[C@@H](O)[C@H](O)[C@H]1O (some centres not stated) | 51 | 
4 | C=C(C)[C@@H]1CC[C@]2(C(=O)O)CC[C@]3(C)[C@H](CC[C@@H]4[C@@]5(C)CC[C@H](O)C(C)(C)[C@@H]5CC[C@]43C)[C@@H]12 | < 10 | 
5 | C[C@H]1[C@H](C)CC[C@]2(C(=O)O)CC[C@]3(C)C(=CC[C@@H]4[C@@]5(C)CC[C@H](O)C(C)(C)[C@@H]5CC[C@]43C)[C@H]12 [URSOLIC ACID] | 32 | > 1000
6 | Oc1cc(O)c2c(c1)O[C@H](c1ccc(O)c(O)c1)[C@@H](O)[C@@H]2c1c(O)cc(O)c2c1O[C@H](c1ccc(O)c(O)c1)[C@@H](O)C2 | 76 | 430
7 | Oc1cc(O)c2c(c1)O[C@@]1(c3ccc(O)c(O)c3)Oc3cc(O)c4c(c3[C@@H]2[C@H]1O)O[C@@H](c1ccc(O)c(O)c1)[C@H](O)[C@H]4c1c(O)cc(O)c2c1O[C@H](c1ccc(O)c(O)c1)[C@H](O)C2 [AESCULTITANNIN B] | 66.8 | 400
8 | CC1=CC(=O)CC(C)(C)/C1=C\CC(C)O[C@@H]1O[C@H](CO)[C@@H](O)[C@H](O)[C@H]1O (some centres not stated) | 28.6 | > 1000
9 | Oc1cc(O)c2c(c1)O[C@H](c1ccc(O)c(O)c1)[C@H](O)C2 [(-)-EPICATECHIN] | 61.9 | 650
10 | Oc1ccc2c(c1)O[C@H](c1ccc(O)c(O)c1)[C@@H](O)[C@@H]2c1c(O)cc2c(c1O)C[C@H](O)[C@@H](c1ccc(O)c(O)c1)O2 | 72.2 | 520
11 | CC1(C)[C@@H](O)CC[C@]2(C)[C@H]3CC[C@@H]4C=C[C@H](O)[C@@]4(C)[C@]3(C)CC[C@@H]12 | 40 | > 1000
12 | CC1=CC(=O)CC(C)(C)[C@H]1/C=C/[C@H](C)O[C@@H]1O[C@H](CO)[C@@H](O)[C@H](O)[C@H]1O | 14 | > 1000
13 | C[C@@H]1CC[C@]2(C(=O)O)CC[C@]3(C)C(=CC[C@@H]4[C@@]5(C)CC(=O)[C@H](O)C(C)(C)[C@@H]5CC[C@]43C)[C@@H]2[C@]1(C)O | < 10 | 
14 | Oc1cc(O)c2c(c1)O[C@H](c1ccc(O)c(O)c1)[C@@H](O)C2 [CIANIDANOL] | 80 | 310
15 | CC1=CC(=O)CC(C)(C)[C@H]1/C=C/[C@@H](C)O[C@@H]1O[C@H](CO)[C@@H](O)[C@H](O)[C@H]1O | 12.5 | > 1000
16 | Oc1ccc([C@H]2Oc3cc(O)ccc3[C@H](c3c(O)cc(O)c4c3O[C@H](c3ccc(O)c(O)c3)[C@H](O)C4)[C@H]2O)cc1 | 68.4 | 480
17 | CC1(C)C=C(C=O)[C@]2(C)[C@H]3CC=C4[C@@H]5[C@H](O)C(C)(C)CC[C@]5(C(=O)O)CC[C@@]4(C)[C@]3(C)CC[C@@H]12 | 32.4 | > 1000
18 | Oc1ccc([C@@H]2Oc3cc(O)ccc3[C@H](c3c(O)cc(O)c4c3O[C@H](c3ccc(O)c(O)c3)[C@H](O)C4)[C@H]2O)cc1 | 84.7 | 250
